# Calls of active or inactive are those of the source.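 Rule for the calls: active = more than half of replicate measurements showing over 20% loss of kinase signal relative to plate controls; inconclusive = some but at most half of replicates over 20% loss; inactive = no replicate over 20% signal loss.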
# Biological target: Glycogen synthase kinase-3 alpha (Homo sapiens) (UniProt P49840)
# Experiment: concentration-response blocking of human GSK3A – biochemical, luminescence, cell-free homogeneous, retest, dose response (AID 463203)
# Conditions: GSK-3 alpha enzyme, ADP-Glo luminescence, 60 min
# Glycogen synthase kinase-3 alpha (Homo sapiens), sequence (P49840 whole entry, looked up): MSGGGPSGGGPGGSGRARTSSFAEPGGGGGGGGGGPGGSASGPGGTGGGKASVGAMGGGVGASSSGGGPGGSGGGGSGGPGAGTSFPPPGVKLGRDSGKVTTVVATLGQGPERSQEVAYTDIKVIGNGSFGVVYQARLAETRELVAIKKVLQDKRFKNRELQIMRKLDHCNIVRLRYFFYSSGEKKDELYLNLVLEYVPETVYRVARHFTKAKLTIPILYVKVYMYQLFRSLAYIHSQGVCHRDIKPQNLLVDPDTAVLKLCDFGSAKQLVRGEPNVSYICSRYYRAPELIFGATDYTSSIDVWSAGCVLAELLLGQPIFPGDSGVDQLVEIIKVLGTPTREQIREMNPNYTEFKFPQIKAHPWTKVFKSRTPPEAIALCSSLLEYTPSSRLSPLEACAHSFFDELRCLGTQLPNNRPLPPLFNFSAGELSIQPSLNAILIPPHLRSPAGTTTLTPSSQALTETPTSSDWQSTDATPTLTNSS
row,Compound,AC50
1,Cc1cc2nc(-c3ccc(=O)[nH]c3)n(Cc3ccccc3)c2cc1C,> 30 µM (inactive)
2,NC(=O)c1cc([N+](=O)[O-])ccc1NCc1cccc([N+](=O)[O-])c1,3.49 µM
3,O=C(CSc1nnc(SCc2ccccc2)s1)N/N=C/c1ccc(C(=O)O)cc1,2.55 µM
4,O=C(CSc1ncccc1-c1nc2ccccc2[nH]1)NCc1ccco1,> 30 µM (inactive)
5,COc1ccc(NC(=O)CN(C)S(=O)(=O)c2cnc[nH]2)cc1,> 30 µM (inactive)
6,COc1cc(C(=O)NCC(=O)N/N=C\C(C)=C/c2ccccc2)cc(OC)c1OC,> 30 µM (inactive)
7,O=C(Nc1ccccc1-c1nnc(SCc2ccccc2Cl)o1)c1ccccc1,> 30 µM (inactive)
8,COc1ccc(/C=C2\Oc3cc(OCC(=O)N4CCC[C@H]4C(=O)O)ccc3C2=O)c(OC)c1,> 30 µM (inactive)
9,CC1(C)CC(=O)C(C=Nc2ccc(O)cc2)=C(O)C1,> 30 µM (inactive)
10,CCOC(=O)Cc1csc(NC(=O)C2CCCN(S(=O)(=O)c3cnc[nH]3)C2)n1 (stereo unspecified),> 30 µM (inactive)
11,Cc1ccc2nc(Cl)c(/C=N/Nc3ccc(C(=O)O)cc3)cc2c1,> 30 µM (inactive)
12,Cc1ccc(C)c(/C=N/Nc2ccccn2)c1,> 30 µM (inactive)
13,COc1ccc(NC(=O)c2ccc(NCCCN3CCOCC3)c([N+](=O)[O-])c2)cc1,> 30 µM (inactive)
14,CC(OC(=O)c1cccc(N2C(=O)c3ccccc3C2=O)c1)C(=O)Nc1ccc(N(C)C)cc1 (stereo unspecified),> 30 µM (inactive)
15,O=C(NCCCN1CCN(Cc2ccccc2Cl)CC1)Nc1ccccc1,> 30 µM (inactive)
16,O=C1/C(=C/c2ccc3c(c2)OCO3)Oc2cc(OCC(=O)N3CCC[C@H]3C(=O)O)ccc21,4.35 µM
17,O=C(O)c1cccc2c1C(=O)c1cc(Br)ccc1S2(=O)=O,> 30 µM (inactive)
18,Cc1onc(-c2ccccc2Cl)c1C(=O)Nc1cccc(-c2nc3ncccn3c2C)c1,> 30 µM (inactive)
19,CN1/C(=C\C=C2C(=O)NC(=O)NC2=O)C(C)(C)c2ccccc21,27.9 µM
20,Cc1ccc(-c2c3c(=O)n(C)c(=O)n(C)c3cn2Cc2ccccn2)cc1,> 30 µM (inactive)
21,COC(=O)[C@@H](NC(=O)NCc1ccccc1F)C(C)C,> 30 µM (inactive)
22,Nc1n[nH]c2cc(=O)n(-c3ccc(Cl)cc3)nc12,18.9 µM
23,O=[N+]([O-])c1cnc2nc(-c3ccncc3)nn2c1O,8.27 µM
24,S=C(Nc1cccc(Cl)c1)Nc1cccc2cnccc12,> 30 µM (inactive)
25,O=Nc1c(-c2c(O)[nH]c3cc(Br)ccc23)[nH]c2ccccc12,< 0.0135 µM
26,CC(=O)C(Sc1ccc2nnc(-c3ccncc3)n2n1)C(C)=O,> 30 µM (inactive)

row,Compound,AC50
1,COc1cc(/C(C)=N/NC(=O)c2nnn(-c3nonc3N)c2-c2cccs2)ccc1O,1.95 µM
2,O=C(Nc1ccccc1-c1nnc(SCc2ccccc2)o1)c1ccccc1,> 30 µM (inactive)
3,CC(C)CNc1cc(N2CCCC2)ccc1[N+](=O)[O-],> 30 µM (inactive)
4,COc1cccc(-c2cc(C(=O)N3CCN(c4ccccc4OC)CC3)no2)c1,> 30 µM (inactive)
5,COc1ccc(-c2noc(CSc3nc(N)cc(=O)[nH]3)n2)cc1,> 30 µM (inactive)
6,COc1cccc(C(=O)NCC(=O)OCC(=O)c2ccccc2)c1,> 30 µM (inactive)
7,CCc1ccc(C2CC(c3ccc(Cl)cc3)n3nc(N)nc3N2)cc1 (stereo unspecified),> 30 µM (inactive)
8,Nc1nonc1-n1nnc(C(=O)N/N=C/c2cccnc2)c1-c1cccs1,1.03 µM
9,CCC(C)Sc1nc2c(c(=O)[nH]1)C(c1cccs1)C1=C(CCCC1=O)N2 (stereo unspecified),> 30 µM (inactive)
10,NS(=O)(=O)c1cccc(NC(=O)CSc2nnc(-c3ccccc3)o2)c1,> 30 µM (inactive)
11,C[C@@H]1O[C@@H](O[C@H]2[C@H](O)[C@@H](O)[C@H](Oc3c(-c4ccc(O)c(O)c4)oc4cc(O)cc(O)c4c3=O)O[C@@H]2CO)[C@H](O)[C@H](O)[C@H]1O,> 30 µM (inactive)
12,CCOC1(OCC)N=C(N)C2(C#N)C(c3cccc(C)c3)C12C#N (stereo unspecified),> 30 µM (inactive)
13,CCOC(=O)c1nn(-c2ccc(Cl)cc2)c2nc(Nc3ccccc3)cc(=O)n12,> 30 µM (inactive)
14,Cc1ccnc(NC(=O)CCC(=O)N(CC(=O)NCc2ccccc2)Cc2ccco2)c1,13.4 µM
15,O=C1CC(/C=C/c2ccncc2)=Nc2ccccc2N1,13.1 µM
16,CCc1ccc(N2CSC3=C(C#N)C(c4cccs4)CC(=O)N3C2)cc1 (stereo unspecified),28.8 µM
17,CC(=O)C(Sc1ccc2nnc(-c3ccc(C)cc3)n2n1)C(C)=O,> 30 µM (inactive)
18,Fc1ccc(-c2nc3n(n2)Cc2ccccc2-3)cc1,> 30 µM (inactive)
19,S=C(NCc1ccc2c(c1)OCO2)NCc1ccc2c(c1)OCO2,25.5 µM
20,CC(C)c1onc(C(=O)N(C)C2CCCCC2)c1[N+](=O)[O-],> 30 µM (inactive)
21,Cc1cccc(NC(=O)CSc2nnc([C@@H](N)Cc3c[nH]c4ccccc34)o2)c1C,> 30 µM (inactive)
22,Cc1ccc(C(=O)N/C(=C\c2ccc(-c3ccc(Cl)cc3)o2)C(=O)NCCCN(C)C)cc1,> 30 µM (inactive)
23,C=CCn1c(O)c(C=NC2CCN(Cc3ccccc3)CC2)c(=O)[nH]c1=O,> 30 µM (inactive)
24,N#CC(C#N)=C1CCc2ccccc2N1,> 30 µM (inactive)
25,O=C(O)c1ccc2c(c1)S(=O)(=O)c1cc(Cl)ccc1C2=O,6.54 µM
